Values joined by “and” are separate entries in the source; they are usually repeats but may differ in a detail not shown here. Equal values may be shown once.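 Where inhibition never reached the appropriate level, the endpoint shown equals the highest concentration tested. Otherwise, values were interpolated linearly from a five-concentration, 48-hour dose response in 96-well plates. GI50 is the concentration that inhibits growth by half.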 Active and inactive are the calls of the source. Cut-off read from the data, not from the text of the source: active = GI50 up to about 1.1 µM and inactive = higher.
What was measured:
Assay in all cases: growth of human tumour cells (NCI), 48 h
NCI-H23 = test system: NCI-H23
CCRF-CEM = test system: CCRF-CEM
SF-295 = test system: SF-295
K562 = test system: K562
NCI-H226 = test system: NCI-H226
A549 = test system: A549
A498 = test system: A498
IGROV-1 = test system: IGROV-1
BT-549 = test system: BT-549
SW-620 = test system: SW-620
HL-60 = test system: HL-60
PC-3 = test system: PC-3
T47D = test system: T47D
SF-268 = test system: SF-268
TK-10 = test system: TK-10
DU-145 = test system: DU-145
SK-MEL-28 = test system: SK-MEL-28
HOP-62 = test system: HOP-62
RPMI-8226 = test system: RPMI-8226
NCI-H522 = test system: NCI-H522

N#CC(c1ccccc1)N(CCCCCCN(C(=O)c1ccccc1)C(C#N)c1ccccc1)C(=O)c1ccccc1 (stereo not given)
GI50 (NCI-H23): 26.2 µM (inactive) | GI50 (CCRF-CEM): 49.8 µM (inactive) | GI50 (SF-295): 27.9 µM (inactive) | GI50 (K562): 35.2 µM (inactive) | GI50 (NCI-H226): 28.6 µM (inactive) | GI50 (A549): 40.7 µM (inactive) | GI50 (A498): 15 µM (inactive) | GI50 (IGROV-1): 52.6 µM (inactive) | GI50 (BT-549): 31.1 µM (inactive) | GI50 (SW-620): 39.3 µM (inactive) | GI50 (HL-60): 32.3 µM (inactive) | GI50 (PC-3): 28.2 µM (inactive) | GI50 (T47D): 28.5 µM (inactive) | GI50 (SF-268): 40.4 µM (inactive) | GI50 (TK-10): 18.7 µM (inactive) | GI50 (DU-145): 41.3 µM (inactive) | GI50 (SK-MEL-28): 44.4 µM (inactive)

CC1CCCc2c(-c3ccc(Cl)cc3)nc(N)c(C#N)c21 (stereo not given)
GI50 (NCI-H23): 30.4 µM (inactive) | GI50 (HOP-62): 19.2 µM (inactive) | GI50 (CCRF-CEM): 21.1 µM (inactive) | GI50 (RPMI-8226): 13.5 µM (inactive) | GI50 (K562): 24 µM (inactive) | GI50 (NCI-H226): 18.4 µM (inactive) | GI50 (A498): 28.4 µM (inactive) | GI50 (IGROV-1): 19.6 µM (inactive) | GI50 (BT-549): 20.2 µM (inactive) | GI50 (SW-620): 61.9 µM (inactive) | GI50 (HL-60): 22.7 µM (inactive) | GI50 (PC-3): 21.6 µM (inactive) | GI50 (T47D): 2.09 µM (inactive) | GI50 (SF-268): 69.3 µM (inactive) | GI50 (TK-10): 43.7 µM (inactive) | GI50 (DU-145): 39 µM (inactive) | GI50 (SK-MEL-28): 34.2 µM (inactive)

COc1ccc(N[C@H](CSc2ccc(C)cc2)c2ccc(F)cc2)cc1
GI50 (NCI-H23): 39.3 µM (inactive) | GI50 (HOP-62): > 100 µM (inactive) | GI50 (CCRF-CEM): > 100 µM (inactive) | GI50 (SF-295): > 100 µM (inactive) | GI50 (RPMI-8226): 23.9 µM (inactive) | GI50 (K562): 52 µM (inactive) | GI50 (A549): 74.6 µM (inactive) | GI50 (IGROV-1): > 100 µM (inactive) | GI50 (BT-549): > 100 µM (inactive) | GI50 (NCI-H522): 38.9 µM (inactive) | GI50 (SW-620): > 100 µM (inactive) | GI50 (PC-3): > 100 µM (inactive) | GI50 (T47D): 24.6 µM (inactive) | GI50 (SF-268): > 100 µM (inactive) | GI50 (TK-10): > 100 µM (inactive) | GI50 (DU-145): > 100 µM (inactive) | GI50 (SK-MEL-28): > 100 µM (inactive)

CC1(C)N=c2c(ncn2-c2ccccc2)=C(C(N)=O)N1
GI50 (NCI-H23): > 100 µM (inactive) | GI50 (HOP-62): > 100 µM (inactive) | GI50 (CCRF-CEM): > 100 µM (inactive) | GI50 (SF-295): > 100 µM (inactive) | GI50 (RPMI-8226): > 100 µM (inactive) | GI50 (K562): > 100 µM (inactive) | GI50 (NCI-H226): > 100 µM (inactive) | GI50 (A549): > 100 µM (inactive) | GI50 (A498): > 100 µM (inactive) | GI50 (IGROV-1): > 100 µM (inactive) | GI50 (NCI-H522): > 100 µM (inactive) | GI50 (SW-620): > 100 µM (inactive) | GI50 (HL-60): > 100 µM (inactive) | GI50 (PC-3): > 100 µM (inactive) | GI50 (T47D): > 100 µM (inactive) | GI50 (SF-268): > 100 µM (inactive) | GI50 (TK-10): > 100 µM (inactive) | GI50 (DU-145): > 100 µM (inactive) | GI50 (SK-MEL-28): > 100 µM (inactive)

O=C1c2ccccc2C(=O)c2sc(Nc3cc(Cl)ccc3Cl)nc21
GI50 (NCI-H23): 4.72 µM (inactive) | GI50 (HOP-62): 15 µM (inactive) | GI50 (CCRF-CEM): 4.29 µM (inactive) | GI50 (SF-295): 4.03 µM (inactive) | GI50 (RPMI-8226): 3.22 µM (inactive) | GI50 (K562): 2.99 µM (inactive) | GI50 (NCI-H226): 17.6 µM (inactive) | GI50 (A549): 16.4 µM (inactive) | GI50 (A498): 21 µM (inactive) | GI50 (IGROV-1): 4.15 µM (inactive) | GI50 (NCI-H522): 2.95 µM (inactive) | GI50 (SW-620): 2.94 µM (inactive) | GI50 (HL-60): 0.736 µM (active) | GI50 (PC-3): 3.21 µM (inactive) | GI50 (T47D): 3.99 µM (inactive) | GI50 (SF-268): 4.09 µM (inactive) | GI50 (TK-10): 15 µM (inactive) | GI50 (DU-145): 8.57 µM (inactive) | GI50 (SK-MEL-28): 6.7 µM (inactive)

OC1(c2ccc(Cl)cc2)C(N2CCCC2)c2ccccc2C2=NCCN21 (stereo not given)
GI50 (NCI-H23): 24.3 µM (inactive) | GI50 (HOP-62): 31.8 µM (inactive) | GI50 (CCRF-CEM): 17.6 µM (inactive) | GI50 (SF-295): 13.6 µM (inactive) | GI50 (RPMI-8226): 13 µM (inactive) | GI50 (K562): 13.6 µM (inactive) | GI50 (A549): 39.9 µM (inactive) | GI50 (A498): 21.2 µM (inactive) | GI50 (IGROV-1): 16.1 µM (inactive) | GI50 (BT-549): 27 µM (inactive) | GI50 (SW-620): 20.3 µM (inactive) | GI50 (HL-60): 20.7 µM (inactive) | GI50 (PC-3): 30 µM (inactive) | GI50 (T47D): 17.7 µM (inactive) | GI50 (SF-268): 47.5 µM (inactive) | GI50 (TK-10): 14.6 µM (inactive) | GI50 (DU-145): 32.4 µM (inactive) | GI50 (SK-MEL-28): 13.9 µM (inactive)

CC1OC(OC2C(OC(=O)[C@]34CCC(C)(C)C[C@H]3C3=CC[C@@H]5[C@@]6(C)CC[C@H](OC7OC(C(=O)O)C(O)C(O)C7O)C(C)(C)[C@@H]6CC[C@@]5(C)[C@]3(C)CC4)OCC(O)C2O)C(O)C(O)C1OC1OCC(O)C(O)C1O (stereo not given in full)
GI50 (NCI-H23): 17.7 µM (inactive) and 19.6 µM (inactive) | GI50 (CCRF-CEM): 77.4 µM (inactive) | GI50 (NCI-H226): 43.6 µM (inactive) and 43.9 µM (inactive) | GI50 (A549): 35.2 µM (inactive) and 30.6 µM (inactive) | GI50 (A498): 17.8 µM (inactive) and 18.6 µM (inactive) | GI50 (IGROV-1): > 100 µM (inactive) | GI50 (NCI-H522): 45.1 µM (inactive) and 45.5 µM (inactive) | GI50 (HL-60): 21.8 µM (inactive) | GI50 (T47D): 34.8 µM (inactive) and 56.9 µM (inactive) | GI50 (SF-268): > 100 µM (inactive) and 53.2 µM (inactive) | GI50 (SK-MEL-28): 18.1 µM (inactive) and 24 µM (inactive)

C[C@H]1C/C=C/[C@H]2[C@@H]3O[C@]3(C)[C@@H](C)[C@H]3[C@H](Cc4ccccc4)NC(=O)[C@]32OC(=O)O/C=C/[C@@](C)(O)C1=O [CYTOCHALASIN E]
GI50 (NCI-H23): 0.197 µM (active) | GI50 (HOP-62): 0.0206 µM (active) | GI50 (CCRF-CEM): 0.021 µM (active) | GI50 (RPMI-8226): 0.556 µM (active) | GI50 (K562): 1.72 µM (inactive) | GI50 (NCI-H226): 0.0333 µM (active) | GI50 (A549): 0.0253 µM (active) | GI50 (A498): 0.0181 µM (active) | GI50 (BT-549): 0.0392 µM (active) | GI50 (NCI-H522): 0.0431 µM (active) | GI50 (SW-620): 21.8 µM (inactive) | GI50 (HL-60): 0.0838 µM (active) | GI50 (PC-3): 0.0141 µM (active) | GI50 (SF-268): 0.0638 µM (active) | GI50 (TK-10): < 0.01 µM (active) | GI50 (DU-145): < 0.01 µM (active) | GI50 (SK-MEL-28): 0.2 µM (active)

From ChEMBL document CHEMBL1201862, “PubChem BioAssay data set” (2004)
